Laboratory results: ChEMBL document CHEMBL1130575, “ATP analogs with non-transferable groups in the position as inhibitors of glycerol kinase” (Bioorg Med Chem Lett, 1997)

Legend:
[1] = pKa value was evaluated; assay type: physicochemical
Glycerol kinase = target: T1, Glycerol kinase (Homo sapiens, UniProt P32189); experiment: Tested for its binding affinity against glycerol kinase (ATP competitive inhibition)
T1 sequence (P32189 whole entry): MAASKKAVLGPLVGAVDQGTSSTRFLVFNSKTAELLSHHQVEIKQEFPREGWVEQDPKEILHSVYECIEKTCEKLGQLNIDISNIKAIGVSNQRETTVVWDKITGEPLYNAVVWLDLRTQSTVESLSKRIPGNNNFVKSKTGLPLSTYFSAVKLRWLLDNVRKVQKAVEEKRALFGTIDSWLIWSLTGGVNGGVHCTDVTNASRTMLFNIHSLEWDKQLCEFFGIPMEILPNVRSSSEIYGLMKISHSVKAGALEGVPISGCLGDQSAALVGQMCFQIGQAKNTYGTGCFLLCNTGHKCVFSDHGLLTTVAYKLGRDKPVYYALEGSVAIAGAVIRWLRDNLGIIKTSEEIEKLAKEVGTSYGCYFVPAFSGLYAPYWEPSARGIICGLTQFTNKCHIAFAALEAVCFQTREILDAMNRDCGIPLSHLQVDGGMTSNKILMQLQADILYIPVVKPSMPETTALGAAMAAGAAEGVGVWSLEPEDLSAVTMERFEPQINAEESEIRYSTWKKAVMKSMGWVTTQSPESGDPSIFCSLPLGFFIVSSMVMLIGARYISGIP

Nc1ncnc2c1ncn2[C@@H]1O[C@H](COP(=O)(O)OP(=O)(O)C(F)(F)P(=O)(O)O)[C@@H](O)[C@H]1O
pKa [1]: 6.7 | Ki (Glycerol kinase): 80 µM

Nc1ncnc2c1ncn2[C@@H]1O[C@H](COP(=O)(O)OP(=O)(O)OP(=O)(O)O)[C@@H](O)[C@H]1O [ADENOSINE TRIPHOSPHATE]
pKa [1]: 7.1 | Ki (Glycerol kinase): 200 µM

Nc1ncnc2c1ncn2[C@@H]1O[C@H](COP(=O)(O)OP(=O)(O)NP(=O)(O)O)[C@@H](O)[C@H]1O
Ki (Glycerol kinase): 900 µM

Nc1ncnc2c1ncn2C1O[C@H](COP(=O)(O)OP(=O)(O)C[As](=O)(O)O)[C@@H](O)[C@H]1O (some centres undefined)
pKa [1]: 9 | Ki (Glycerol kinase): 2900 µM

Nc1ncnc2c1ncn2[C@@H]1O[C@H](COP(=O)(O)OP(=O)(O)CP(=O)(O)O)[C@@H](O)[C@H]1O [PHOSPHOMETHYLPHOSPHONIC ACID ADENYLATE ESTER]
pKa [1]: 8.4 | Ki (Glycerol kinase): 300 µM
